Key:
Details in all cases: enzymatic assay
PI3K gamma = PI3K gamma (Homo sapiens (Human), UniProt P48736); experiment: Biochemical assay for PI3Kgamma (Adapta TR-FRET format)
Text: (§1) For the enzymatic assays, the preparation of PI3K gene constructs, protein expression and purification for HTS are described in WO2012/004299. […] The TR-FRET Adapta™ Universal Kinase Assay Kit was purchased from Invitrogen Corporation (Carlsbad/CA, USA) (Cat. No. PV5099). The kit contains the following reagents: Adapta Eu-anti-ADP Antibody (Europium labeled anti-ADP antibody in HEPES buffered saline, Cat. No. PV5097), Alexa Fluor® 647-labeled ADP tracer (Alexa Fluor® 647-labeled ADP tracer in HEPES buffered saline, Cat. No. PV5098), proprietary TR-FRET dilution buffer pH 7.5 (Cat. No. PV3574). PIK3CD substrate Phosphatidylinositol was obtained from Invitrogen (vesicules consisting of 2 mM PI in 50 mM HEPES pH7.5; Cat. No. PV5371). PIK3CG substrate Phosphatidylinositol-4,5-bisphosphate (PIP(4,5)2 was obtained from Invitrogen (PIP2:PS large unilamellar vesicules consisting of 1 mM PI P2: 19 mM PS in 50 mM HEPES pH7.5, 3 mM MgCl2, 1 mM EGTA; Cat. No. PV5100). Time-Resolved Fluorescence Resonance Energy Transfer (TR-FRET) is a technology based on energy transfer between two adjacent dyes, from an excited electron in one dye (the donor) to an electron of an adjacent dye (the acceptor) through resonance, then released as a photon. This energy transfer is detected by an increase in the fluorescence emission of the acceptor, and a decrease in the fluorescence emission of the donor. TR-FRET assays for protein kinases use a long-lifetime lanthanide Terbium or Europium chelates as the donor species which overcome interference from compound autofluorescence or light scatter from precipitated compounds, by introducing a delay after excitation by a flashlamp excitation source. Results are often expressed as a ratio of the intensities of the acceptor and donor fluorophores. The ratiometric nature of such a value corrects for differences in assay volumes between wells, as well as corrects for quenching effects due to colored compounds. The Adapta™ assay can be divided into two phases: a kinase reaction phase and an ADP detection phase. In the kinase reaction phase, all kinase reaction components are added to the well and the reaction is allowed to incubate for a set period of time specific for each kinase. After the reaction, a detection solution of Eu-labeled anti-ADP antibody, Alexa Fluor® 647-labeled ADP tracer, and EDTA (to stop the kinase reaction) are added to the assay well. ADP formed by the kinase reaction will displace the Alexa Fluor® 647-labeled ADP tracer from the antibody, resulting in a decrease in TR-FRET signal. In the presence of an inhibitor, the amount of ADP formed by the kinase reaction is reduced, and the resulting intact antibody-tracer interaction maintains a high TR-FRET signal. In the Adapta™ assay, the donor (Europium-anti-ADP antibody) is excited at 340 nm and will transfer its energy to the acceptor (Alexa Fluor® 647-labeled ADP tracer). The emission from the Alexa Fluor® 647 can be monitored with a filter centered at 665 nm because it is located between the emission peaks of the donor, which is measured at 615/620 nm. 50 nL of compound dilutions were dispensed onto white 384-well small volume polystyrene plate as described in section 2.2. Then 5 μL of PI3Kgamma and PI3Kdelta and lipid substrate (PI or PIP2:PS) followed by 5 μL of ATP (final assay volume 10 μL) are incubated at RT. […] Reactions were stopped with 5 μL of a mixture of EDTA containing the Eu-labeled anti-ADP antibody and the Alexa Fluor® 647-labeled ADP tracer in TR-FRET dilution buffer (proprietary to IVG). Plates are read 15 to 60 mins later in a Synergy2 reader using an integration time of 0.4 seconds and a delay of 0.05 seconds. […] The control for the 0% inhibition was given by the solvent vehicle of the compounds (90% DMSO in H2O). Data are analyzed using Excel fit software or Graphpad Prism. EC50 values were derived by fitting a sigmoidal dose-response curve to a plot of assay readout over inhibitor concentration. […]

PI3K alpha = PI3K alpha (Homo sapiens (Human), UniProt P42336); experiment: Biochemical assay for PI3Kalpha (Kinase-Glo format)
Method: 1.1 Generation of Gene Constructs, Protein Expression and Purification
For the enzymatic assays, the preparation of PI3K gene constructs, protein expression and purification for HTS are described in WO2012/004299.
1.2 Biochemical Assays for PI3Kalpha, PI3Kbeta (Kinase-Glo Format)
The kinase reaction is performed in a final volume of 50 μl per well of a half area COSTAR, 96 well plate. The final concentrations of ATP and phosphatidyl inositol in the assay are 5 μM and 6 μg/mL, respectively. The reaction is started by the addition of PI3 kinase, e.g. PI3 kinase α.
The components of the assay are added per well as follows: • 10 μl test compound in 5% DMSO per well in […]. • Total activity is determined by addition 10 μl of 5% vol/vol DMSO in the first 4 wells of column 1 and the last 4 wells of column 12. • The background is determined by addition of 10 μM control compound to the last 4 wells of column 1 and the first 4 wells of column 12. • 2 mL ‘Assay mix’ are prepared per plate: • 1.912 mL of HEPES assay buffer • 8.33 μl of 3 mM stock of ATP giving a final concentration of 5 μM per well • 1 μl of [^33P]ATP on the activity date giving 0.05 μCi per well • 30 μl of 1 mg/mL PI stock giving a final concentration of 6 μg/mL per well • 5 μl of 1 M stock MgCl2 giving a final concentration of 1 mM per well • 20 μl of the assay mix are added per well. • 2 mL ‘Enzyme mix’ are prepared per plate (x* μl PI3 kinase p110α in 2 mL of kinase buffer). The ‘Enzyme mix’ is kept on ice during addition to the assay plates. * The volume of enzyme is dependent on the enzymatic activity of the batch in use. • 20 μl ‘Enzyme mix’ are added/well to start the reaction. • The plate is then incubated at room temperature for 90 minutes. • The reaction is terminated by the addition of 50 μl WGA-SPA bead (wheat germ agglutinin-coated Scintillation Proximity Assay beads) suspension per well. • The assay plate is sealed using TopSeal-S (heat seal for polystyrene microplates, PerkinElmer LAS [Deutschland] GmbH, Rodgau, Germany) and incubated at room temperature for at least 60 minutes. • The assay plate is then centrifuged at 1500 rpm for 2 minutes using the Jouan bench top centrifuge (Jouan Inc., Nantes, France). • The assay plate is counted using a Packard TopCount, each well being counted for 20 seconds.
In a more preferred assay, the kinase reaction is performed in a final volume of 10 μl per well of a low volume non-binding CORNING, 384 well black plate (Cat. No. #3676). The final concentrations of ATP and phosphatidyl inositol (PI) in the assay are 1 μM and 10 μg/mL, respectively. The reaction is started by the addition of ATP.
The components of the assay are added per well as follows: […]

PI3K delta = PI3K delta (Homo sapiens (Human), UniProt O00329); experiment: Biochemical assay for PI3Kdelta (Adapta TR-FRET format)
Text: as §1

Sequence of PI3K delta (O00329 2-1044): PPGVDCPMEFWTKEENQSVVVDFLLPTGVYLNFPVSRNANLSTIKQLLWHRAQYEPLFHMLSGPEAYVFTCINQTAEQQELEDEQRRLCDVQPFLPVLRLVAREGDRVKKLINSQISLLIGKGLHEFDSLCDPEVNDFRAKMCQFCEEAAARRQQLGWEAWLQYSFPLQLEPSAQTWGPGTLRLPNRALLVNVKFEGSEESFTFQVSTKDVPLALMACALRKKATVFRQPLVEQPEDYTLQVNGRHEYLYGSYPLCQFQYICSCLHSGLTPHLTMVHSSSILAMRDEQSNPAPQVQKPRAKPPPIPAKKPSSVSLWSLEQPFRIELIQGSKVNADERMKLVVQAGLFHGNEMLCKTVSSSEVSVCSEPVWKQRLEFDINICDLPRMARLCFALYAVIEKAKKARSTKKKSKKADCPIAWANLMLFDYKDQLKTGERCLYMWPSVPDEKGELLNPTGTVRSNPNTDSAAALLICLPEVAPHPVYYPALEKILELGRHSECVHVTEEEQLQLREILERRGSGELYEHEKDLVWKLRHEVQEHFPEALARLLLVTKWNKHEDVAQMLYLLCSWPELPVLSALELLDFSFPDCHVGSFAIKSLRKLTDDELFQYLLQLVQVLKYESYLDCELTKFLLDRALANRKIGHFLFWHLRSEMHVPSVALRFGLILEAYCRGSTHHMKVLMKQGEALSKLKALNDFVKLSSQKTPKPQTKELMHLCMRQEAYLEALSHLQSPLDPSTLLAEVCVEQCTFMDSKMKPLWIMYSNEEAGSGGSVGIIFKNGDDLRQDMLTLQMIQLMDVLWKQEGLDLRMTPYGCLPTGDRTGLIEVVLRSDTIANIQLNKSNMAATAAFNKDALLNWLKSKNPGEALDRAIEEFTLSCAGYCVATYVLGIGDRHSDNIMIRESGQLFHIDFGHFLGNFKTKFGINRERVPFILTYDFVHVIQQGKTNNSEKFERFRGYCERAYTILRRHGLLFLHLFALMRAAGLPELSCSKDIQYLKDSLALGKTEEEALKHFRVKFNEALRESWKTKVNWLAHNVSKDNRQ
Sequence of PI3K delta (P27986 461-568 partner): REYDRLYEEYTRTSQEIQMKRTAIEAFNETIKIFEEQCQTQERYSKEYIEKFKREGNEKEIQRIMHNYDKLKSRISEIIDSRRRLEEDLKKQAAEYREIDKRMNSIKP
Sequence of PI3K alpha (P42336 21-1068): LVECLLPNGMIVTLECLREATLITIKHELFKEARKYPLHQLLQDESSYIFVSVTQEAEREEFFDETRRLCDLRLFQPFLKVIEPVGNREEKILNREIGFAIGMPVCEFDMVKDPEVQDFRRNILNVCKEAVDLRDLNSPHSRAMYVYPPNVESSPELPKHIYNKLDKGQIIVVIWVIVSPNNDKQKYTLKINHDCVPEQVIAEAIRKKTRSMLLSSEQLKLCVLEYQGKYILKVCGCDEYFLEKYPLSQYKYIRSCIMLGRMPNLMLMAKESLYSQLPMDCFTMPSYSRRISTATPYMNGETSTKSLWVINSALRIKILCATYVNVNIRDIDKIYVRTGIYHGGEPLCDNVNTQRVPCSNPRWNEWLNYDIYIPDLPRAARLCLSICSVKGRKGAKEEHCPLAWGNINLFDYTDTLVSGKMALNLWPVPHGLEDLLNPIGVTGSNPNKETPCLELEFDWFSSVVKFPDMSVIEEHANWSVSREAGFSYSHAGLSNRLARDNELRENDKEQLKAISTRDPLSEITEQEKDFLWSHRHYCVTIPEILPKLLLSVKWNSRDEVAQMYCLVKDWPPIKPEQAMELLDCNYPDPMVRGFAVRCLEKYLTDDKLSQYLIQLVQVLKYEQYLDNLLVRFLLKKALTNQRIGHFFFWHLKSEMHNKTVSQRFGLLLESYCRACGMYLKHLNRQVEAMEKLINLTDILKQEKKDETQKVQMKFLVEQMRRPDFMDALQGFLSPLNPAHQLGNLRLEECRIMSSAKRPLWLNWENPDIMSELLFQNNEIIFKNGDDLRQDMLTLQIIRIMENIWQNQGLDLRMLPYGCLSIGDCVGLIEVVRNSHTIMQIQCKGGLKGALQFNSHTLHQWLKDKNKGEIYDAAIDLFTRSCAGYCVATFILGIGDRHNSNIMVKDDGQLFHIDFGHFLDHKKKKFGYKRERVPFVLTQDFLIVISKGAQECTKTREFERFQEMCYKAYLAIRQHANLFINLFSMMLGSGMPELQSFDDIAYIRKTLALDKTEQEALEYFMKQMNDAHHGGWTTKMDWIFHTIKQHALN
Sequence of PI3K alpha (P27986 461-568 partner): as the sequence (P27986 461-568 partner) above
Sequence of PI3K gamma (P48736 whole entry): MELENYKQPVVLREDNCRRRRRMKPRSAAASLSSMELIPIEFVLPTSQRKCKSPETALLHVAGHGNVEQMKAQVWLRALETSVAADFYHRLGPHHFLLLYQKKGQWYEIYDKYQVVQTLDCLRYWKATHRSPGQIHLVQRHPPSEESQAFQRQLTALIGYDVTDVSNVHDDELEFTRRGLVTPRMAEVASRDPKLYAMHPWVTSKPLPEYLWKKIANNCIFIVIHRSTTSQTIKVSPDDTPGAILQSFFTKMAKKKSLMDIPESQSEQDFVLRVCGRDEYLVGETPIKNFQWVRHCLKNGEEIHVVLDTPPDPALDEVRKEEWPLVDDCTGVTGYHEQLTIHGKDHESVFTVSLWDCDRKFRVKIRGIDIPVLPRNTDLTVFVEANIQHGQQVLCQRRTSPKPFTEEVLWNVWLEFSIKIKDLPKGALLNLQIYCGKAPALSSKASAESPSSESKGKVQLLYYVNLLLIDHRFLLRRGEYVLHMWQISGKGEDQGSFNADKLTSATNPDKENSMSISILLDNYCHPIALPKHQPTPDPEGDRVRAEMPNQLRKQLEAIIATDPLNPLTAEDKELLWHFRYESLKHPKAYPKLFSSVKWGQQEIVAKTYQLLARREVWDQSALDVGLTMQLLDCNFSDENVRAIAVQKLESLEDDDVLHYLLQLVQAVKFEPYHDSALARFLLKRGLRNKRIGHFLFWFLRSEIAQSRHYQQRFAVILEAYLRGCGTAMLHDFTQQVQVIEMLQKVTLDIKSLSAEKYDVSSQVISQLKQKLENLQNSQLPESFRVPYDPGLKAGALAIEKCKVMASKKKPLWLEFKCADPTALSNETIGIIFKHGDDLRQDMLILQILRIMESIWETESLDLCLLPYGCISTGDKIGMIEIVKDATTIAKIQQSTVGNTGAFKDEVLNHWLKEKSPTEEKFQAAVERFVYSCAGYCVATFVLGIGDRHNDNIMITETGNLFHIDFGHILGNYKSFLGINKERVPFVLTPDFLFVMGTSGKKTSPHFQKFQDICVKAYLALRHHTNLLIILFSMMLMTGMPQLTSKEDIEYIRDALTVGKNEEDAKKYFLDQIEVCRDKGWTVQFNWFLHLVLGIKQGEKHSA

Row | Structure (SMILES) | IC50 (PI3K gamma) [nM] | IC50 (PI3K alpha) [nM] | IC50 (PI3K delta) [nM]
1 | Cc1nc(N)nc(N2C[C@@H](F)C[C@H]2c2nc3cccc(-c4cnn(C)c4)c3c(=O)n2-c2ccccc2)c1C#N [Example 30, 2-Amino-4-((2S,4S)-4-fluoro-2-(5-(1-methyl-1H-pyrazol-4-yl)-4-oxo-3-phenyl-3,4-dihydroquinazolin-2-yl)pyrrolidin-1-yl)-6-methylpyrimidine-5-carbonitrile] | 24 | 450 | 14
2 | CCOc1ncc(-c2cccc3nc([C@@H]4CCCN4c4nc(N)nc(C)c4C#N)n(-c4ccccc4)c(=O)c23)cn1 [Example 32, (S)-2-Amino-4-(2-(5-(2-ethoxypyrimidin-5-yl)-4-oxo-3-phenyl-3,4-dihydroquinazolin-2-yl)pyrrolidin-1-yl)-6-methylpyrimidine-5-carbonitrile] | 140 | 490 | 5
3 | COc1ncc(-c2c(F)ccc3nc([C@@H]4C[C@H](O)CN4c4nc(N)nc(C)c4C#N)n(-c4ccccc4)c(=O)c23)cn1 [Example 7, 2-Amino-4-((2S,4S)-2-(6-fluoro-5-(2-methoxypyrimidin-5-yl)-4-oxo-3-phenyl-3,4-dihydroquinazolin-2-yl)-4-hydroxypyrrolidin-1-yl)-6-methylpyrimidine-5-carbonitrile] | 110 | 210 | 6
4 | Cc1nc(N)nc(N2CCC[C@H]2c2nc3ccc(F)c(-c4cnn(C)c4)c3c(=O)n2-c2ccccc2)c1C#N [Example 6, (S)-2-Amino-4-(2-(6-fluoro-5-(1-methyl-1H-pyrazol-4-yl)-4-oxo-3-phenyl-3,4-dihydroquinazolin-2-yl)pyrrolidin-1-yl)-6-methylpyrimidine-5-carbonitrile] | 56 | 130 | 9
5 | COc1cncc(-c2cccc3nc([C@@H]4C[C@H](O)CN4c4nc(N)nc(C)c4C#N)n(-c4ccccc4)c(=O)c23)c1 [Example 25, 2-Amino-4-((2S,4S)-4-hydroxy-2-(5-(5-methoxypyridin-3-yl)-4-oxo-3-phenyl-3,4-dihydroquinazolin-2-yl)pyrrolidin-1-yl)-6-methylpyrimidine-5-carbonitrile] | 65 | 48 | 5
6 | COc1ncc(-c2cccc3nc([C@@H]4C[C@H](O)CN4c4nc(N)nc(C)c4C#N)n(-c4ccccc4)c(=O)c23)cn1 [Example 22, 2-Amino-4-((2S,4S)-4-hydroxy-2-(5-(2-methoxypyrimidin-5-yl)-4-oxo-3-phenyl-3,4-dihydroquinazolin-2-yl)pyrrolidin-1-yl)-6-methylpyrimidine-5-carbonitrile] | 130 | 580 | 5
7 | COc1ncc(-c2cccc3nc([C@@H]4CCCN4c4ncnc(N)c4C#N)n(-c4ccccc4)c(=O)c23)cn1 [Example 3, (S)-4-Amino-6-(2-(5-(2-methoxypyrimidin-5-yl)-4-oxo-3-phenyl-3,4-dihydroquinazolin-2-yl)pyrrolidin-1-yl)pyrimidine-5-carbonitrile] | 1200 | 1400 | 8
8 | Cc1ccccc1-n1c([C@@H]2CCCN2c2ncnc(N)c2C#N)nc2cccc(-c3cnn(C)c3)c2c1=O [Example 14, (S)-4-Amino-6-(2-(5-(1-methyl-1H-pyrazol-4-yl)-4-oxo-3-(otolyl)-3,4-dihydroquinazolin-2-yl)pyrrolidin-1-yl)pyrimidine-5-carbonitrile] | 330 | 920 | 74
9 | Cc1nc(N)nc(N2CCC[C@H]2c2nc3cccc(-c4cnn(C)c4)c3c(=O)n2-c2ccccc2)c1C#N [Example 13, (S)-2-Amino-4-methyl-6-(2-(5-(1-methyl-1H-pyrazol-4-yl)-4-oxo-3-phenyl-3,4-dihydroquinazolin-2-yl)pyrrolidin-1-yl)pyrimidine-5-carbonitrile] | 120 | 260 | 7
10 | COc1ncc(-c2cccc3nc([C@@H]4C[C@H](OC)CN4c4nc(N)nc(C)c4C#N)n(-c4ccccc4)c(=O)c23)cn1 [Example 12, 2-Amino-4-((2S,4S)-4-methoxy-2-(5-(2-methoxypyrimidin-5-yl)-4-oxo-3-phenyl-3,4-dihydroquinazolin-2-yl)pyrrolidin-1-yl)-6-methylpyrimidine-5-carbonitrile] | 210 | 1200 | 5
11 | CCOc1ncc(-c2c(F)ccc3nc([C@@H]4C[C@H](O)CN4c4nc(N)nc(C)c4C#N)n(-c4ccccc4)c(=O)c23)cn1 [Example 29, 2-Amino-4-((2S,4S)-2-(5-(2-ethoxypyrimidin-5-yl)-6-fluoro-4-oxo-3-phenyl-3,4-dihydroquinazolin-2-yl)-4-hydroxypyrrolidin-1-yl)-6-methylpyrimidine-5-carbonitrile] | 13 | 370 | 4
12 | Cn1cc(-c2cccc3nc([C@@H]4CCCN4c4ncnc(N)c4C#N)n(-c4ccccc4)c(=O)c23)cn1 [Example 2, (S)-4-Amino-6-(2-(5-(1-methyl-1H-pyrazol-4-yl)-4-oxo-3-phenyl-3,4-dihydroquinazolin-2-yl)pyrrolidin-1-yl)pyrimidine-5-carbonitrile] | 150 | 1300 | –

— patent US9840498B2, “Substituted quinazolin-4-one derivatives” (NOVARTIS AG, priority 2013, dated 2017)
